Assay results taken from patent US8652787B2, “Use of ERBB4 as a prognostic and therapeutic marker for melanoma” (The United States of America, as represented by the …, priority 2008, dated 2014).
Entries after “also recorded” stand apart in the source; their conditions may differ.

Experiments:
[1] = tested on: melanoma cell lines harboring mutant ERBB4; test: Growth inhibition of melanoma cell lines by lapatinib (72 h, methylene blue staining / SYBR Green I); type: cell-based, human
Description: (§1) Cells were treated for 72 hours in the presence of increasing concentrations (0.01-30 μM) of lapatinib, and relative cell number was estimated by methylene blue protein staining and plotted as percent survival when compared to vehicle-treated control versus Log (lapatinib) nM (where 1 is 10 nM lapatinib). Fitted lines were generated using 4-parameter nonlinear regression via GraphPad Prism. […] The IC50 values for inhibition of cell growth by 72 hour treatment with lapatinib of a larger panel of lines harboring WT and mutant ERBB4 were analyzed using GraphPad Prism v.5 (n=3). (C) Immunoprecipitation and western blot analysis of ERBB4 autophosphorylation in cells treated with lapatinib. Cells were treated for 1 hour with lapatinib or vehicle alone as control. […] The activity of ERBB4, AKT and ERBB2 was determined by immunoblotting with phospho-specific antibodies. […] Lysates and immunoprecipitates were analyzed by western blotting using the indicated antibodies. […] (E) Quantitative assessment of data from 2 cell lines harboring WT ERBB4 and 3 cell lines harboring mutant ERBB4 that were performed similarly to (D). […] (G) Quantitation of FACS-sorted lapatinib-treated cells. The percent apoptotic cells were determined based on the sub-G1 population for vehicle-treated cells or lapatinib-treated cells.

ERBB4 (P-Y1162) = test: Immunoprecipitation and western blot of ERBB4 autophosphorylation in lapatinib-treated melanoma cells; type: cell-based, human
Description: as §1

AKT (P-S473) = test: Western blot of AKT phosphorylation in lapatinib-treated melanoma cells; type: cell-based, human; details: 1 hour, 5 μM lapatinib
Description: as §1

ERBB2 (P-Y1248) = ERBB2 (P-Y1248) (Homo sapiens, UniProt P04626); test: Immunoprecipitation and western blot of ERBB2 phosphorylation in lapatinib-treated melanoma cells; type: cell-based; details: 1 hour, 5 μM lapatinib
ERBB2 (P-Y1248), sequence (P04626 23-1255): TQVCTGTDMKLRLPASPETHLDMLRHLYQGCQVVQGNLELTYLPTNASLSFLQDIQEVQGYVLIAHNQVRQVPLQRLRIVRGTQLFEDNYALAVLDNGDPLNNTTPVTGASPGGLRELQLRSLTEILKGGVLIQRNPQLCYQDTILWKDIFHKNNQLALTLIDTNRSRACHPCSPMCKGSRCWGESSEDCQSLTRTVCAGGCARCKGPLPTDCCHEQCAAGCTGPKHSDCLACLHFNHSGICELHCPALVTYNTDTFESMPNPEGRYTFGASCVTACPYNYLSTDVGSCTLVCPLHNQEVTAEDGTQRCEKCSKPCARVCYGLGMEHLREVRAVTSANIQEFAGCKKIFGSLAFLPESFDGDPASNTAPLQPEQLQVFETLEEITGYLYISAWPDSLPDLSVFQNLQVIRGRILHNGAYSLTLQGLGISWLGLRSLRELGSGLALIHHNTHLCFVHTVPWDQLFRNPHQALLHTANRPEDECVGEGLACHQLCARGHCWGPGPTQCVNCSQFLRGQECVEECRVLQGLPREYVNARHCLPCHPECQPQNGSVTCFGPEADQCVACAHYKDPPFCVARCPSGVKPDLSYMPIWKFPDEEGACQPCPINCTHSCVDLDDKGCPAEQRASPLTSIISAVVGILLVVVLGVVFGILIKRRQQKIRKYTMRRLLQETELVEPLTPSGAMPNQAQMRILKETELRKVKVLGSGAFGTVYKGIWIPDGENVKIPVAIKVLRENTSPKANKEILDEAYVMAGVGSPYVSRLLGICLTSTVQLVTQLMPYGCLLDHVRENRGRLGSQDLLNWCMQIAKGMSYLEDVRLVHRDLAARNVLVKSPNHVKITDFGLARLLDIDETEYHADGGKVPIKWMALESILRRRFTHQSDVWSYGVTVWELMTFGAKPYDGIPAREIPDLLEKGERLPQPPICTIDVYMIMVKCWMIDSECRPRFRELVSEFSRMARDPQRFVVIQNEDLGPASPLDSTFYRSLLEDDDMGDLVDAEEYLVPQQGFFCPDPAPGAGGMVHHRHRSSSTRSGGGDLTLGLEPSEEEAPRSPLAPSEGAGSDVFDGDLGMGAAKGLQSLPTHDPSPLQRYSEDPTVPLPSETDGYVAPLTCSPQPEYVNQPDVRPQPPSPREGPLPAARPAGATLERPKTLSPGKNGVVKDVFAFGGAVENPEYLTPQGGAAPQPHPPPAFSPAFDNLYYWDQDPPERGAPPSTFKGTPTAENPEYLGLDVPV
Description: as §1

ERK1 and ERK2 = test: Western blot of ERK1/2 phosphorylation in lapatinib-treated melanoma cells; type: cell-based, human; details: 72 hours, 5 μM lapatinib; P-ERK1/ERK1, P-ERK2/ERK2
Description: FIG. 14: Effect of lapatinib in ERK1/2 signaling pathways. […] Cells were treated for 72 hours with 5 μM lapatinib or vehicle as control. The activity of ERK1 and ERK2 was determined by immunoblotting with phospho-specific antibodies. Total ERK protein was also determined by immunoblotting. Shown are representative blots. (B) Quantitative assessment of data from one melanoma cell line harboring mutant ERBB4. The ratio of band intensities of P-ERK1/ERK1 or P-ERK2/ERK2 was analyzed for each melanoma cell line.
Transfected cells were washed 3× in PBS and lysed using 0.5 ml 1% NP-40 lysis buffer (1% NP-40, 50 mM Tris-HCl pH 7.5, 150 mM NaCl, complete protease inhibitor tablet, EDTA-free (Roche, Indianapolis, Ind.), 1 μM sodium orthovanadate, 1 mM sodium fluoride, and 0.1% β-mercaptoethanol) per T-75 flask for 20 minutes on ice. Lysed cells were scraped and transferred into a 1.5 mL microcentrifuge tube. Extracts were centrifuged for 10 minutes at 14,000 rpm at 4° C. […]
Scanned films from western blot analysis of SDS-PAGE were analyzed using ImageJ (NIH software). Individual bands were quantitated and plots were generated to determine the intensities in each band. The data was then exported to Microsoft Excel and analyzed further for phospho:total ratios of protein.

[2] = tested on: melanoma cells harboring mutant ERBB4 or WT ERBB4; test: Flow cytometry (PI staining) of the sub-G1 apoptotic population after lapatinib; type: cell-based, human; details: 72 hours, 5 μM lapatinib, FACS
Description: as §1

## CS(=O)(=O)CCNCc1ccc(-c2ccc3ncnc(Nc4ccc(OCc5cccc(F)c5)c(Cl)c4)c3c2)o1 [lapatinib]
[1]; 72 hours, 0.01-30 μM lapatinib, compared with cells containing endogenous WT ERBB4
  reduction of cell proliferation / sensitivity to lapatinib, ERBB4 mutant versus WT ERBB4 melanoma cells: increased sensitivity to lapatinib compared to WT ERBB4 cell lines; also recorded: reduced cell proliferation to a greater extent in cells containing endogenous ERBB4 mutations
[1]; IC50 for inhibition of cell growth, 72 hour treatment, n=3
  fold greater sensitivity to lapatinib (from IC50) of melanoma cells harboring ERBB4 mutations than cells with WT receptor: 10- to 250 fold
ERBB4 (P-Y1162); 1 hour, 5 μM lapatinib, (P-Y1162)-ERBB4/ERBB4
  inhibition of ERBB4 activation in cells harboring mutant ERBB4: specific inhibition of ERBB4 and AKT activation
ERBB4 (P-Y1162); cells treated for 1 hour with lapatinib, α-P-ERBB4 (Y1162)
  inhibition of ERBB4 receptor autophosphorylation: inhibited receptor autophosphorylation in a dose-dependent manner
AKT (P-S473)
  inhibition of AKT activation in cells harboring mutant ERBB4: specific inhibition of ERBB4 and AKT activation
ERBB2 (P-Y1248)
  inhibition of ERBB2 in melanoma cell lines: No inhibition
ERK1 and ERK2
  inhibition of ERK activation: slightly inhibited; also recorded: increased lapatinib sensitivity with respect to ERK1 and ERK2 phosphorylation
[2]
  apoptosis (sub-G1 population) of melanoma cells harboring mutant ERBB4 compared to WT ERBB4 lines: increased sub-G1 population
[2]; listed as Lapatinib
  apoptosis (sub-G1 population) of melanoma cells harboring mutant ERBB4 compared to WT ERBB4 lines: markedly increased apoptosis
